Results taken from patent US20240083874A1, “TARGETING PLECKSTRIN-2 FOR TREATING CANCER AND OTHER DISEASES AND DISORDERS” (Northwestern University, priority 2021, published 2024).
“Also recorded” adds a separate entry of the source.

System: mouse fetal liver erythroblasts
Assay: mouse fetal liver erythroblast proliferation in erythropoietin containing medium
Type: cell-based
Conditions: approximately 10 uM NUP-52A added to the culture; proliferation monitored daily for two days; comparable to JAK2 inhibitor Ruxolitinib (FIG. 4)
Method: FIG. 4. Effect of NUP-52A on cell proliferation, differentiation, and enucleation in comparison to ruxolitinib. Ter119 negative mouse fetal liver erythroblasts were purified and cultured in erythropoietin containing medium. NUP-52A (Panels A, B, and C) or Ruxolitinib (Panels D, E, and F) with indicated concentrations were added to the culture media at the start of culture. The cells were cultured for two days. Cell proliferation, differentiation, and enucleation were analyzed using flow cytometry on day 2.
To screen these compounds, an assay using a well-developed Plek2 functional screening system (28) was performed. In this system, mouse fetal liver erythroid progenitors are purified and cultured in erythropoietin containing medium. These cells undergo rapid proliferation closely mimicking accelerated erythropoiesis in MPNs. In these cells, Plek2 is also highly expressed during the culture. This system then may be utilized to test Plek2 inhibitor compounds.
We used mouse fetal liver erythroblasts to test the compound. Approximately 10 uM NUP-52A was added in the fetal liver erythroblast culture and the proliferation of the cells is monitored daily for two days. […] (See FIG. 4).

**Q.** How did the “effect on the proliferation of erythroblasts” value turn out when `Clc1ccc2c(N3CCNCC3)cc(-c3c[nH]c4ccccc34)nc2c1` [NUP-52A, 7-chloro-4-(piperazin-1-yl)-2-(1H-indol-3-yl)quinoline] was run?
**A.** The value was “potent effects; also recorded: strong inhibitory effects”.
